Reference: PMC9756341 (Journal of the American Chemical Society, 2022)

What was measured:
KLK6 [1] = test: Enzyme kinetics to calculate kobs/I, KLK6; assay type: biochemical, human; details: KLK6 1.5 nM, fluorogenic substrate 22 5 µM, 50 mM Tris 150 mM NaCl 1 mM EDTA 0.05% Tween20 pH 7.5, room temperature, read every 30 s for 30 min, ex/em 380/440 nm, pseudo first order kinetics, corrected by (1 + [S]/KM), triplicates
endogenous active KLK6 = details: Capan-2 conditioned media, streptavidin pulldown, KLK6 western blot
Protocol: Conditioned media was incubated with bABP 17 (10 μM) or DMSO for 2 h, and labeled proteins enriched on magnetic streptavidin-loaded beads, eluted, and analyzed by western blot against a KLK6 antibody.
Cell culture. Cells were cultured in their recommended culture media supplemented with 10% (v/v)
foetal bovine serum at 37 °C and 5% CO2.
Preparation of conditioned media. Cells were grown in standard growth media to 80% confluency in
a T175 flask. The medium was removed, and the cells were washed with serum-free, phenol-red free
RPMI. The cells were incubated with the same RPMI for 2 h. The medium was replaced once again
with serum-free, phenol-red free RPMI and the cells were incubated for 48 h. The condition medium
was collected and filtered through a 0.2 µm syringe filter. The medium was concentrated (25 mL to
0.75 mL) using a 3 kDa Mw cutoff spin filter to a final concentration of around 1 mg/mL. The protein
concentration was measured using a BioRad DCTM protein assay.
Pulldown experiments (western blot). Conditioned media was diluted with PBS to exactly 1 mg/mL.
200 µg of total protein was used per condition. The ABP or DMSO was added at a 1:100 dilution and
the samples were shaken at RT for 1 h. The proteins were precipitated using the MeOH/H2O/CHCl3
method. The pellet was washed twice with MeOH and dried in air for 5 min. The protein was
resuspended in 2% SDS in PBS to a concentration of 10 mg/mL. PBS was added to gradually dilute
the protein back to 1 mg/mL and the samples were centrifuged (17,000 g, 5 min). 5 µg of protein was
set aside as the “before pulldown” samples. Magnetic streptavidin beads were washed three times with
PBS. The rest of the protein was added into the beads and shaken at RT for 2 h. 5 µg of the supernatant
was set aside for analysis, while the rest was discarded. The beads were washed three times with 1%
SDS in PBS. […]
were boiled at 95 °C for 5 min. The proteins were analysed via SDS-PAGE and western blot analysis. […]
10 min, followed by 180 V for 60 min. Gels were then taken for western blot or in-gel fluorescence. […]

Capan-2 cells [2] = details: 0.13 to 2 μM, Incucyte live cell imaging every 4 h for 5 days, serum-free DMEM
Protocol: Incucyte assays for proliferation and toxicity
Proliferation was quantified using the Incucyte software by measuring percentage confluency. Sytox
green was used as a marker for cell death. Cell death was quantified by measuring total green
fluorescence of each well.
Incucyte (proliferation and toxicity) assays. Capan-2 cells were seeded in a sterile 96 well plate
(10,000 cells per well). The outermost wells were left empty to mitigate edge effects. Cells were grown
in growth media (10% FBS) overnight to adhere. The next day, the media was replaced with serum-free
DMEM (117 µL) containing Sytox green (250 nM) or a DMSO control.

Capan-2 cells [3] = details: Capan-2 cells (active KLK6), 2 μM, 24 h, relative to DMSO
Protocol: (§1) Next, the effect of KLK6 inhibition on migration and invasion of Capan-2 cells was assessed using a Boyden chamber assay.
(§2) (13 µL per condition). Control conditions included puromycin (100 µg/mL), DMSO only, Sytox green only or DMSO + Sytox green. The final inhibitor concentrations ranged from 2 µM to 125 nM. The cells were placed into an Incucyte with the incubator set at 37 °C and 5% CO2. Phase and green fluorescence were analysed every 4 h for 5 days.
(§3) Invasion/migration assays. Cell invasion was measured using Corning Fluoroblok inserts following a modified procedure11. Fluoroblok inserts were placed into the wells of a 24-well plate. Matrigel was suspended to 300 µg/mL in coating buffer (0.01M Tris, 0.7% NaCl, pH 8). The matrigel suspension (100 µL) was added into the Fluoroblok insert and the plate was left at 37 °C for 2 h. A migration control (with no matrigel) was also included. Cells were trypsinised and resuspended in serum-free DMEM.
(§4) The leftover buffer in the chambers was decanted and 500 µL of cells (100,000 per well) were seeded into the apical chamber of the insert. DMEM with 10% FBS (750 µL) was added into the basal chamber as a chemoattractant. The plate was incubated at 37 °C and 5% CO2 for 24 h. The chambers were removed and placed into a new 24-well plate containing 50 µM of CellTracker CMHC dye in HBSS. The cells were stained for 0.5 h and the chamber was removed and placed into the previous plate containing DMEM with 10% FBS. The cells were imaged for blue fluorescence (ex/em = 375/460) using a Celena S inverted fluorescence microscope. Percentage invasion was calculated by quantifying the cell area

BxPC-3 cells = BxPC-3 cells (no active KLK6), 2 μM, 24 h, relative to DMSO
Protocol: as §1, §2, §3, §4

KLK8 = molecular target: T1, KLK8 (Homo sapiens, UniProt O60259); test: Enzyme kinetics to calculate kobs/I, KLK8; assay type: biochemical; details: KLK8 1 nM, Boc-VPR-AMC 30 µM, 100 mM Na2PO4 0.01% Tween20 pH 8.5, room temperature, 30 min, pseudo first order kinetics, triplicates
T1 construct: Active recombinant FGFBP1 (Code 1593-FB), HSPG2 (Code 2364-ER), uPA (Code 1310-SE), tPA (Code 7449-SE) and KLK8 (Code 2025-SE) were obtained from BioTechne; purchased BioTechne 2025-SE
T1 sequence (O60259 33-260): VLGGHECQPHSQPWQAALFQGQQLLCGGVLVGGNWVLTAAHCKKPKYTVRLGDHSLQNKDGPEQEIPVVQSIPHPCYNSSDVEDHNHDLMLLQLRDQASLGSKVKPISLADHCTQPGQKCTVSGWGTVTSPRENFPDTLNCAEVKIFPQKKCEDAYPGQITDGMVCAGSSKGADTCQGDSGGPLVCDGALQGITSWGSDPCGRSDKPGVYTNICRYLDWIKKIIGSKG

tPA = molecular target: T2, tPA (Homo sapiens, UniProt P00750); test: Enzyme kinetics to calculate KM, tPA; assay type: biochemical; details: fluorogenic substrate, tPA 2 nM, 2% DMSO, room temperature, 30 min, Michaelis-Menten model, triplicates
T2 construct: purchased BioTechne 7449-SE
Protocol: (§5) Reagents were obtained from VWR, Sigma Aldrich, Sartorius, Fluorochem, AGTC, Novabiochem, TCI, Alfa Aesar, Iris Biotech, Thermofisher and Bachem. […]
(§6) (Code 7449-SE) and KLK8 (Code 2025-SE) were obtained from BioTechne. KLK6 was obtained from the group of Aubry Miller (DKFZ) and KLK7 was obtained from the group of Judith Clements (QUT).
The manufacturer’s recommended buffers were used with uPA and tPA but not KLK8. […]
(§7) Fluorescence measurements were measured using an Envision plate reader. Fluorescence data was processed using Graphpad Prism 8. […]
(§8) 2-chlorotrityl chloride resin. […]
380nm/440nm. The data was analysed using Graphpad Prism 8. The initial slopes of each plot were calculated and presented in a bar chart, which represents the substrate specificity of the KLK. Error bars represent the standard deviation between the three replicates.
(§9) Enzyme kinetics to calculate KM. Purified fluorogenic substrates were measured in triplicates. […]
(§10) temperature, fluorescence was read once every 30 s for 30 min from an Envision plate reader at excitation/emission wavelengths of 380nm/440nm. The data was analysed with Graphpad Prism 8, using the Michaelis-Menten model.
(§11) Enzyme kinetics to calculate kobs/I. All ABPs and inhibitors were measured in triplicates. […]
using a pseudo first order kinetics model. The observed rate of inhibition (kobs) was calculated by plotting a one-phase association. […]

uPA = molecular target: T3, uPA (Homo sapiens, UniProt P00749); test: Enzyme kinetics to calculate KM, uPA; assay type: biochemical; details: fluorogenic substrate, uPA 2 nM, 2% DMSO, room temperature, 30 min, Michaelis-Menten model, triplicates
T3 construct: purchased BioTechne 1310-SE
Protocol: Reagents were obtained from VWR, Sigma Aldrich, Sartorius, Fluorochem, AGTC, Novabiochem, TCI, Alfa Aesar, Iris Biotech, Thermofisher and Bachem. 1H and 13C NMR spectra were measured on 400 MHz Bruker AV instruments. Cells were obtained directly from the ATCC. A Waters LC-MS system (2767 sample manager, 2998 UV detector and 3100 mass detector) was used for the analysis and purification of peptides. The analytical column was an Xbridge C18 4.6 mm x 100 mm. The preparative column used to purify the peptides was an Xbridge C18 19 mm x 100 mm. For analytical LC-MS, the flow rate was 1.2 mL/min, while preparative runs were at 20 mL/min. […]
All solvents contained an additive (0.1% formic acid). High resolution mass was recorded on a Micromass Autospec Premier through the Imperial College London mass spectrometry services. […]
as §7
Peptides were prepared using standard fluorenylmethoxycarbonyl (Fmoc) solid phase peptide synthesis. Reactions were monitored using the ninhydrin test. […]
(§12) 380nm/440nm. The data was analysed using Graphpad Prism 8. The initial slopes of each plot were calculated and presented in a bar chart, which represents the substrate specificity of the KLK. […]
as §9

KLK6 [4] = test: Enzyme kinetics to calculate KM, KLK6; assay type: biochemical, human; details: fluorogenic substrate, KLK6 1.5 nM, 2% DMSO, room temperature, 30 min, Michaelis-Menten model, triplicates
Protocol: as §5, §6
The manufacturer’s recommended buffers were used with uPA and tPA but not KLK8. The KLK6 assay buffer was as follows: 50 mM Tris 150 mM NaCl, 1 mM EDTA, 0.05% Tween20, pH 7.5. The KLK7/8 buffer was as follows: 100 mM Na2PO4, 0.01% Tween20, pH 8.5. Fluorescence measurements were measured using an Envision plate reader. Fluorescence data was processed using Graphpad Prism 8. […]
as §8, §12, §9, §10, §11

[5] = Fluoroblok insert without Matrigel
[6] = Matrigel-coated Fluoroblok insert

T2 sequence (P00750 36-562): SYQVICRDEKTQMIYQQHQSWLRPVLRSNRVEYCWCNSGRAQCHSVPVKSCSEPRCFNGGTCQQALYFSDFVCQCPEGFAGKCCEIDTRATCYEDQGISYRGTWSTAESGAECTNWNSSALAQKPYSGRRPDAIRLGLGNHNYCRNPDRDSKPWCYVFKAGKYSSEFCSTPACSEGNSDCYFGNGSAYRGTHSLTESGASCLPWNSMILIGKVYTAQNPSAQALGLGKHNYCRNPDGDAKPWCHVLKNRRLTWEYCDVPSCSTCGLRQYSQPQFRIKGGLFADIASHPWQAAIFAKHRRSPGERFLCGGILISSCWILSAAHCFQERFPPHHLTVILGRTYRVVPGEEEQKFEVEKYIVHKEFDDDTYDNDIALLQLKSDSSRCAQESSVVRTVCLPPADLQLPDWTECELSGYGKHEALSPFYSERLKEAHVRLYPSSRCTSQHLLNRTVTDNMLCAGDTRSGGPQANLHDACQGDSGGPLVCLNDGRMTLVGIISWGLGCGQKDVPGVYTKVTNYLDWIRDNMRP

Row | Substance | KLK6 kobs/I (KLK6 [1]) [M^–1 s^–1] | further results
1 | biotin–Ahx–Thr(Z)–Ala–Dht–Phg(4-guan)PP [compound 9] | 220 | –
2 | biotin–Ahx–DPhe–Ser(Z)–Dht–DArgPP [compound 18] | 0 | labeling of endogenous KLK6 (endogenous active KLK6): no KLK6 labeling; effect on proliferation (percentage confluency) (Capan-2 cells [2]): no effect; effect on migration (Capan-2 cells [3]; [5]): no effect; effect on invasion (Capan-2 cells [3]; [6]): no effect; effect on migration (BxPC-3 cells; [5]): no effect; effect on invasion (BxPC-3 cells; [6]): no effect
3 | Yn–Thr(Z)–Ala–Ser(Z)–Phg(4-guan)PP [compound 7] | 43 | –
4 | biotin–Ahx–Thr(Z)–Cha–Dht–Phg(4-guan)PP [compound 10] | 420 | KLK8 kobs/I (KLK8): 71 M^–1 s^–1
5 | Z-GGR-AMC | – | Km (tPA): 1200 µM; Km (uPA): 190 µM
6 | Yn–Thr(Z)–Ala–Dht–Phg(4-guan)PP [compound 5] | 250 | –
7 | Yn–Thr(Z)–Ala–Phg–Phg(4-guan)PP [compound 1] | 220 | –
8 | biotin–Ahx–DPhe–Cha–Ser(Ac)–Phg(4-guan)PP [compound 15] | 150 | KLK8 kobs/I (KLK8): 20 M^–1 s^–1
9 | Ac-DPhe-Ser(Z)-Dht-Arg-ACC [compound 23, purified fluorogenic substrate for KLK6] | – | Km (KLK6 [4]): 180 µM
10 | Yn–DPhe–Ser(Z)–Dht–DArgPP [compound 20] | 0 | –
11 | biotin–Ahx–DPhe–Lys–Dht–Phg(4-guan)PP [compound 13] | 250 | –
12 | Yn–Asp(Chx)–Cha–His(Z)–Phg(4-guan)PP [compound 4] | 54 | –
13 | biotin–Ahx–DhPhe–Cha–Dht–Phg(4-guan)PP [compound 12] | 140 | KLK8 kobs/I (KLK8): 0 M^–1 s^–1
14 | Yn–Thr(Z)–Ala–Tyr(Z)–Phg(4-guan)PP [compound 6] | 7 | –
15 | Yn–Thr(Z)–Ala–Dab(Z)–Phg(4-guan)PP [compound 8] | 11 | –
16 | Yn–Thr(Z)–Cha–His(Z)–Phg(4-guan)PP [compound 3] | 46 | –
17 | biotin–Ahx–DPhe–Cha–Dht–ArgPP [compound 16] | 1300 | KLK8 kobs/I (KLK8): 150 M^–1 s^–1
18 | biotin–Ahx–DPhe–DLys–Dht–Phg(4-guan)PP [compound 14] | 550 | KLK8 kobs/I (KLK8): 73 M^–1 s^–1
19 | Yn–Thr(Z)–Chg–His(Z)–Phg(4-guan)PP [compound 2] | 30 | –
20 | biotin–Ahx–DPhe–Cha–Dht–Phg(4-guanPP [compound 11] | 210 | KLK8 kobs/I (KLK8): 0 M^–1 s^–1
21 | Ac-Thr(Z)-Ala-Phg-Arg-ACC [compound 22, purified fluorogenic substrate for KLK6] | – | Km (KLK6 [4]): 86 µM
